Patent publication US20130197040A1, “POLYMORPHS OF DALFAMPRIDINE, PREPARATIONS AND USES THEREOF” (priority 2010, published 2013)

What was measured:
[1] = Stability on exposure to the air at room temperature for 12 months, purity by HPLC; assay type: physicochemical; conditions: after exposure to the air at room temperature for 12 months
Method: (§1) The polymorphs of 4-aminopyridine or the polymorphs of the solvates thereof according to the present invention were exposed to the air at room temperature for 12 months, and then purities thereof were measured by using high performance liquid chromatography.
as §1, with “The above-mentioned eight” for “The”, “or” for “or the polymorphs”, “chromatography. The obtained purity results thereof were shown as follows:” for “chromatography.”
The purities were measured by using high performance liquid chromatography under the following conditions:
Chromatographic Column: Agilent extend-C18 (250*4.6 mm, 5 μ)
Mobile Phase: 0.01 mol/L of monopotassium phosphate solution containing 0.01 mol/L of sodium octanesulfonate (adjusted to pH 2.6 with phosphoric acid)-methanol (75:25);
Column Temperature: 40° C.;
Detection Wavelength: 264 nm;

[2] = tested on: multiple sclerosis patients; conditions: clinical trials (Phase III); cited from earlier work
[3] = tested on: multiple sclerosis patients; conditions: injected in 11 patients with eyesight and motor function impaired because of multiple sclerosis, 1983; cited from earlier work

SMILES | Purity (%) [1] [%] | other results
Nc1ccncc1 [Polymorph I, 4-aminopyridine] | 99.66 | –
Nc1ccncc1 [Polymorph II, 4-aminopyridine] | 100 | –
Nc1ccncc1 [Polymorph III, 4-aminopyridine] | 100 | –
Nc1ccncc1 [Polymorph IV, 4-aminopyridine] | 100 | –
Nc1ccncc1 [Polymorph V, 4-aminopyridine] | 100 | –
Nc1ccncc1 [Polymorph VI, 4-aminopyridine] | 99.98 | –
Nc1ccncc1 [Polymorph VII, 4-aminopyridine] | 100 | –
Nc1ccncc1 [Polymorph VIII, 4-aminopyridine] | 100 | –
Nc1ccncc1 [dalfampridine, 4-aminopyridine] | – | walking speed versus placebo [2]: faster than that in patients who took a placebo; eyesight [3]: improved; walking speed [3]: improved
